US12227500B2, “Substituted pyrrolo[2,3-b]pyridines for suppressing toxic endoplasmic reticulum stress” (THE TRUSTEES OF COLUMBIA UNIVERSITY IN THE CITY OF NEW YORK, priority 2018, dated 2025)
Read-outs that look alike come from different tables or passages of the source.

Assays:
Assay in all cases: Radiolabeled ATP kinase assay, panel of 60 kinases (Table S5)
Assay type in all cases: biochemical
[1] = biological target: T1, panel of 60 human kinases (Homo sapiens, UniProt Q12851); details: GCK/MAP4K1; 0.1 μM; 10 μM ATP; read-out: % Enzyme Activity (relative to DSMO controls)
T1 construct: purchased Reaction Biology Corp
T1 sequence (Q12851 1-820): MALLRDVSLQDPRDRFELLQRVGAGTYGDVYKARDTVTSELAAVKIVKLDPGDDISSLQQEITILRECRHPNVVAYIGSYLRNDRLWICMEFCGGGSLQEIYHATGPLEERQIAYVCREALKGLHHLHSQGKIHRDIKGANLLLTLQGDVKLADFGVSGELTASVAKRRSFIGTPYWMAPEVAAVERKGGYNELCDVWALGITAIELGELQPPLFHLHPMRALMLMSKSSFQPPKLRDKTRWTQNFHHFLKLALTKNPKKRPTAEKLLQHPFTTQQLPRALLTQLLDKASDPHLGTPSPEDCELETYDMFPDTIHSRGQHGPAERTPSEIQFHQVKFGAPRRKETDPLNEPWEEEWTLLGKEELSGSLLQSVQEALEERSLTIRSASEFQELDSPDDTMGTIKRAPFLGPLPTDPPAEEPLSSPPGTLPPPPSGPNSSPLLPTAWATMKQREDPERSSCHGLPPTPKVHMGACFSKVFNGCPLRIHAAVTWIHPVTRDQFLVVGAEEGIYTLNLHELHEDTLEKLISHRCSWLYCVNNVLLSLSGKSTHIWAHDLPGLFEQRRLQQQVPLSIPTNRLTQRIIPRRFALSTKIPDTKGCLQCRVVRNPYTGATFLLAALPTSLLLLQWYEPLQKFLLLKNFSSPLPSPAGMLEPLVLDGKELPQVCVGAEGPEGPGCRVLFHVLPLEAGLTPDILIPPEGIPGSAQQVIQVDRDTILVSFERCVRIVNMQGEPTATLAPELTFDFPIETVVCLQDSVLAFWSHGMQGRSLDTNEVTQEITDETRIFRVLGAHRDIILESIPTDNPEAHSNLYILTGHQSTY
Summary of the method: (§1)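 Compounds at two concentrations, 0.1 μM and 0.5 μM, were screened for inhibition of 60 kinases in cell-free assays read out by radiolabeled ATP.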

[2] = biological target: T2, panel of 60 human kinases (Homo sapiens, UniProt O95819); details: HGK/MAP4K4; 0.1 μM; 10 μM ATP; read-out: % Enzyme Activity (relative to DSMO controls)
T2 construct: purchased Reaction Biology Corp
Summary of the method: as §1

[3] = biological target: T3, panel of 60 human kinases (Homo sapiens, UniProt Q9H2K8); details: TAOK3/JIK; 0.1 μM; 10 μM ATP; read-out: % Enzyme Activity (relative to DSMO controls)
T3 construct: purchased Reaction Biology Corp
T3 sequence (Q9H2K8 1-898): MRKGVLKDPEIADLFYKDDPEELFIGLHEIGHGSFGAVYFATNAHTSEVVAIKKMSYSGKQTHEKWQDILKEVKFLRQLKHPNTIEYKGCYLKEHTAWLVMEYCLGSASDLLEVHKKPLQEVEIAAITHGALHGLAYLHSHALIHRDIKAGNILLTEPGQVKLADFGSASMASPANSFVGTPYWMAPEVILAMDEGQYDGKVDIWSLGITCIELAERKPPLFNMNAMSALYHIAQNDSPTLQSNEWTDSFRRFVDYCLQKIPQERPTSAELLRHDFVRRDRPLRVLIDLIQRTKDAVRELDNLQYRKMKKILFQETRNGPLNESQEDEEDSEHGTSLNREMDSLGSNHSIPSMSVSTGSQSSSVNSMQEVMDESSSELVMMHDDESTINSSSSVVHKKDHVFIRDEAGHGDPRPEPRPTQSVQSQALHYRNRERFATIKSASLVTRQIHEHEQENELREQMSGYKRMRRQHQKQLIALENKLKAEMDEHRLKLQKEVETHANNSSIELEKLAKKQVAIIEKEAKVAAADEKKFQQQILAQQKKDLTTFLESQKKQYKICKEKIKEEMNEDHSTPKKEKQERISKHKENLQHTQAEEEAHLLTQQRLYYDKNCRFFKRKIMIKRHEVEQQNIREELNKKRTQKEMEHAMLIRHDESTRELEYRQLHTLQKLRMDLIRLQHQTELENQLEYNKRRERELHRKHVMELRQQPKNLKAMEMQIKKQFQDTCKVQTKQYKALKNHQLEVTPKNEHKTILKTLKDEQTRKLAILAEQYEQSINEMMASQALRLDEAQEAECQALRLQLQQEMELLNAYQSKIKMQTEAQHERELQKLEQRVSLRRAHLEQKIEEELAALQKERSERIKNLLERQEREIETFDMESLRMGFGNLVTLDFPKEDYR
Summary of the method: as §1

[4] = biological target: T4, panel of 60 human kinases (Homo sapiens, UniProt P11802); details: 0.1 μM, 10 μM ATP, read-out: % Enzyme Activity (relative to DSMO controls)
T4 construct: purchased Reaction Biology Corp
Summary of the method: as §1

[5] = biological target: T5, panel of 60 human kinases (Homo sapiens, UniProt Q9Y4K4); details: KHS/MAPK4K5; 0.1 μM; 10 μM ATP; read-out: % Enzyme Activity (relative to DSMO controls)
T5 construct: purchased Reaction Biology Corp
Summary of the method: as §1

[6] = biological target: T6, panel of 60 human kinases (Homo sapiens, UniProt O94921); details: CDK14/cyclin Y (PFTK1); 0.1 μM; 10 μM ATP; read-out: % Enzyme Activity (relative to DSMO controls)
T6 construct: purchased Reaction Biology Corp
Summary of the method: as §1

[7] = biological target: T7, panel of 60 human kinases (Homo sapiens, UniProt Q08345); details: DDR1; 0.1 μM; 10 μM ATP; read-out: % Enzyme Activity (relative to DSMO controls)
T7 construct: purchased Reaction Biology Corp
Summary of the method: as §1

T4 sequence (P11802 whole entry): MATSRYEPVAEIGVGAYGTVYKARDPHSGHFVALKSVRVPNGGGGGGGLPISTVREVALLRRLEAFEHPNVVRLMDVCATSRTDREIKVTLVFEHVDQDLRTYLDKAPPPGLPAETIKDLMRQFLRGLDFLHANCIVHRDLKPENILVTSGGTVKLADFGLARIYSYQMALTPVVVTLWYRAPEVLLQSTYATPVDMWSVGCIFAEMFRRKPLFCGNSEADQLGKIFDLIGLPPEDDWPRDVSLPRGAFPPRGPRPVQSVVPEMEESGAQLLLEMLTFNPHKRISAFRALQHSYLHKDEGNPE
T7 sequence (Q08345 19-913): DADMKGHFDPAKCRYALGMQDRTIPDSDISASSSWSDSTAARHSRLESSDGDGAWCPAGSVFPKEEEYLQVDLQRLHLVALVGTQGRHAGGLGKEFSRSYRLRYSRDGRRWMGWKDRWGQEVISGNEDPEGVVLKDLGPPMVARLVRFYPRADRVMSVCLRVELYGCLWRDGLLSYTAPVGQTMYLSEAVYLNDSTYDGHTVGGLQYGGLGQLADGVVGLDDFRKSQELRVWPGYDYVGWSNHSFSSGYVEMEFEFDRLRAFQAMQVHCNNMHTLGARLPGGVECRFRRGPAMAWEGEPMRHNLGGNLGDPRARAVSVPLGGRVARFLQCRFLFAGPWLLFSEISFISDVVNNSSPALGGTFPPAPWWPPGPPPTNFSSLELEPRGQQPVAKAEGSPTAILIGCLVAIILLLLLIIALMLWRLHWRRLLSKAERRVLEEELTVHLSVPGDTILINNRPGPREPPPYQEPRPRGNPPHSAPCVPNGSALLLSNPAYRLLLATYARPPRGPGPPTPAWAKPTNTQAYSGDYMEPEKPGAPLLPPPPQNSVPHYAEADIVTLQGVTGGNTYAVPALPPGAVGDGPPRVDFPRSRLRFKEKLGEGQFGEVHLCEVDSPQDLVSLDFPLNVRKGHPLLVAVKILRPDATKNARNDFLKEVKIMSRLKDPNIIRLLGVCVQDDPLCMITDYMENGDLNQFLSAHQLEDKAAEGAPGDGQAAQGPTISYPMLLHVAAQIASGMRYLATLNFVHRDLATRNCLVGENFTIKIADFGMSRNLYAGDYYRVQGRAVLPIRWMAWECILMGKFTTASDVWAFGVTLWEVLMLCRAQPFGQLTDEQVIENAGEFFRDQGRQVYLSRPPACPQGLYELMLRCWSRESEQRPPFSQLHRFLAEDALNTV
T6 sequence (O94921 whole entry): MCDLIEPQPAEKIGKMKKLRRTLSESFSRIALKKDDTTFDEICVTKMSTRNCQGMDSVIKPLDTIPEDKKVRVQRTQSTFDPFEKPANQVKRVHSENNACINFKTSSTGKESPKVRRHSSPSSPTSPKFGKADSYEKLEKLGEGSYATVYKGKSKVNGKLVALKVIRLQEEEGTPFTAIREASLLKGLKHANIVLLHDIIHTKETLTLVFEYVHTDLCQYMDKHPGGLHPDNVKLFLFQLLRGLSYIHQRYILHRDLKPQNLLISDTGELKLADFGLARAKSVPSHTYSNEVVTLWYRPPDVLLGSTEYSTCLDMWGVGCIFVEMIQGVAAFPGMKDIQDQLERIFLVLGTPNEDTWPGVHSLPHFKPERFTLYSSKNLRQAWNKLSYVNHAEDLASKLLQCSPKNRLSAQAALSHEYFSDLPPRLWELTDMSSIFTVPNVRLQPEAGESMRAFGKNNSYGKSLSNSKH
T5 sequence (Q9Y4K4 whole entry): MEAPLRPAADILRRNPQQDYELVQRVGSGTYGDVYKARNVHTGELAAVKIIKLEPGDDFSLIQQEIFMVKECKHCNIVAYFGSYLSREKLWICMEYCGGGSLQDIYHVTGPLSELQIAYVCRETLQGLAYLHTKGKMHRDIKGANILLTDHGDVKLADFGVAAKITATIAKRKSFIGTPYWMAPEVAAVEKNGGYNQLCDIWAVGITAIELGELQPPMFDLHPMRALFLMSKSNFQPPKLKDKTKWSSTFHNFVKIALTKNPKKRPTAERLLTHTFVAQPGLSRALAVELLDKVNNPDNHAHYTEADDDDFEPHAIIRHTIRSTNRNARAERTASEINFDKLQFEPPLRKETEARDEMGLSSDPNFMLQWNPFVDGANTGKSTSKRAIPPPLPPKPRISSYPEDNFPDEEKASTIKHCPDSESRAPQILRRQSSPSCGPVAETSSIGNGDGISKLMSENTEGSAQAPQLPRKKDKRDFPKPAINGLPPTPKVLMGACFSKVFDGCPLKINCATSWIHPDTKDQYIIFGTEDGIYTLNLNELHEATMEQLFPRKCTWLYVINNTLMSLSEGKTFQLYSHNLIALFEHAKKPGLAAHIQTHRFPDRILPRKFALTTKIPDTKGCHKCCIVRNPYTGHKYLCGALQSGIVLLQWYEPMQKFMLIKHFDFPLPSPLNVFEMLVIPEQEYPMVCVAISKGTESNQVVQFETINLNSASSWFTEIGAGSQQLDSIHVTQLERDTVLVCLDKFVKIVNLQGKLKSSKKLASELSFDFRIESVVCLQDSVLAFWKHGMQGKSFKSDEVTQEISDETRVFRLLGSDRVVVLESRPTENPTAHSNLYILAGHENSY
T2 sequence (O95819 whole entry): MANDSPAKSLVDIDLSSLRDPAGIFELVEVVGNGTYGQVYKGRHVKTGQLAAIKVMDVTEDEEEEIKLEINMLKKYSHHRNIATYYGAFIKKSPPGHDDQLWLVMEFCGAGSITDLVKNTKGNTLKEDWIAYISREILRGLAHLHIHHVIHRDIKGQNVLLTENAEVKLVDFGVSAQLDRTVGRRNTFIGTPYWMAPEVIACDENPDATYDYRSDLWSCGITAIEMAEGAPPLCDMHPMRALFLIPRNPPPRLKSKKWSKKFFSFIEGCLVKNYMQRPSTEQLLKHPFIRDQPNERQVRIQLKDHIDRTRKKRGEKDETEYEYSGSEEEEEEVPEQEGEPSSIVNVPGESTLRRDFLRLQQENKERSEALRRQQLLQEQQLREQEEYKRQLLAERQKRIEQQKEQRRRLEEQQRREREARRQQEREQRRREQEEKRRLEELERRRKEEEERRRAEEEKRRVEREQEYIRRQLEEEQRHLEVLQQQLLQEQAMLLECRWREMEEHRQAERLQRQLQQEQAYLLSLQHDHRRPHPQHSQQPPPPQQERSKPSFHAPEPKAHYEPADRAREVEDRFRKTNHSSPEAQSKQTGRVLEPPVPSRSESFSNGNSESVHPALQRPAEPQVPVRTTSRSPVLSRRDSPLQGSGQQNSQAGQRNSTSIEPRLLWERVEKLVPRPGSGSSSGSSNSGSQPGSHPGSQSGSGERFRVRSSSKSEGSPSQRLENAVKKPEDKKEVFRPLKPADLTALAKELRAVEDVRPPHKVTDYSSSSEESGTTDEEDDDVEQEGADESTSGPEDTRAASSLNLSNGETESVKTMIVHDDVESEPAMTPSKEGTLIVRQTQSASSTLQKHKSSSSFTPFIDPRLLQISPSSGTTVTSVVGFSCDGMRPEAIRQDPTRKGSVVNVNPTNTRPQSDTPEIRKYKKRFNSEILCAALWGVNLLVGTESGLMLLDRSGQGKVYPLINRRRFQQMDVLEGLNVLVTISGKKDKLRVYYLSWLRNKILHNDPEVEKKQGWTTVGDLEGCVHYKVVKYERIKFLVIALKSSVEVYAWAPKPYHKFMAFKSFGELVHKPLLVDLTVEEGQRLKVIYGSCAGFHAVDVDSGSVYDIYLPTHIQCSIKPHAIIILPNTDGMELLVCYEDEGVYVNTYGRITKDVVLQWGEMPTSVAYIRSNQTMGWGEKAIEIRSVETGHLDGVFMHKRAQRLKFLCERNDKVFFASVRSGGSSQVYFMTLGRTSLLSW

| SMILES | remaining activity at 0.1 µM [1] [%] | remaining activity at 0.1 µM [2] [%] | remaining activity at 0.1 µM [3] [%] | remaining activity at 0.1 µM ([4]; CDK4/cyclin D1) [%] | remaining activity at 0.1 µM ([4]; CDK4/cyclin D3) [%] | remaining activity at 0.1 µM [5] [%] | remaining activity at 0.1 µM [6] [%] | remaining activity at 0.1 µM [7] [%] |
| --- | --- | --- | --- | --- | --- | --- | --- | --- |
| CN1CCN(Cc2ccc(-c3cnc4[nH]cc(-c5ccc6[nH]ccc6c5)c4c3)cc2)CC1 [Compound 1, 3-(1H-Indol-5-yl)-5-(4-((4-methylpiperazin-1-yl)methyl)phenyl)-1H-pyrrolo[2,3-b]pyridine, reference compound] | 27.5 | 1.96 | 84 | 51 | 49.1 | 11 | 88.2 | 47.5 |
| CN1CCN(Cc2ccc(-c3cnc4[nH]cc(-c5cccc(Cl)c5)c4c3)cc2)CC1 [Compound 7ad, 3-(3-Chlorophenyl)-5-(4-((4-methylpiperazin-1-yl)methyl)phenyl)-1H-pyrrolo[2,3-b]pyridine] | 8.09 | 1.36 | 92 | 70.9 | 58.1 | 5.8 | 92.5 | 82 |
| CN1CCN(Cc2ccc(-c3cnc4[nH]cc(-c5cnn(Cc6ccccc6)c5)c4c3)cc2)CC1 [Compound 7ah, 3-(1-Benzyl-1H-pyrazol-4-yl)-5-(4-((4-methylpiperazin-1-yl)methyl)phenyl)-1H-pyrrolo[2,3-b]pyridine] | 10.1 | 5.18 | 77.4 | 25.9 | 26 | 6.09 | 30.1 | 38.3 |
| Cc1nn(C)c(C)c1-c1c[nH]c2ncc(-c3ccc(CN4CCN(C)CC4)cc3)cc12 [Compound 7ai, 5-(4-((4-Methylpiperazin-1-yl)methyl)phenyl)-3-(1,3,5-trimethyl-1H-pyrazol-4-yl)-1H-pyrrolo[2,3-b]pyridine] | 53.8 | 9.15 | 102 | 65.9 | 65.4 | 16.5 | 83.9 | 76.5 |
| CN1CCN(Cc2ccc(-c3cnc4[nH]cc(-c5ccccc5Cl)c4c3)cc2)CC1 [Compound 7as, 3-(2-Chlorophenyl)-5-(4-((4-methylpiperazin-1-yl)methyl)phenyl)-1H-pyrrolo[2,3-b]pyridine] | 8.85 | -0.5 | 69.8 | 31.9 | 39.7 | 0.89 | 85 | 35.6 |
| COc1ccccc1-c1c[nH]c2ncc(-c3ccc(CN4CCN(C)CC4)cc3)cc12 [Compound 7at, 3-(2-Methoxyphenyl)-5-(4-((4-methylpiperazin-1-yl)methyl)phenyl)-1H-pyrrolo[2,3-b]pyridine] | 12.3 | 9.52 | 65.5 | 14.1 | 24.4 | 3.35 | 76.4 | 68.1 |
| CN1CCN(Cc2ccc(-c3cnc4[nH]cc(-c5ccc6c(c5)OCCO6)c4c3)cc2)CC1 [Compound 7d, 3-(2,3-Dihydrobenzo[b][1,4]dioxin-6-yl)-5-(4-((4-methylpiperazin-1-yl)methyl)phenyl)-1H-pyrrolo[2,3-b]pyridine] | 13.1 | 2.05 | 67.9 | 19.4 | 26.7 | 4.17 | 66.3 | 57.4 |
| CN1CCN(Cc2ccc(-c3cnc4[nH]cc(-c5ccncc5)c4c3)cc2)CC1 [Compound 7n, 5-(4-((4-Methylpiperazin-1-yl)methyl)phenyl)-3-(pyridin-4-yl)-1H-pyrrolo[2,3-b]pyridine] | 59.6 | 35 | 94.9 | 27.8 | 37 | 30.9 | 35 | 79.7 |
| CN1CCN(Cc2ccc(-c3cnc4[nH]cc(-c5ccoc5)c4c3)cc2)CC1 [Compound 7w, 3-(Furan-3-yl)-5-(4-((4-methylpiperazin-1-yl)methyl)phenyl)-1H-pyrrolo[2,3-b]pyridine] | 33.6 | 2.85 | 95.2 | 73.4 | 72.2 | 15.1 | 83.8 | 75.2 |
